How the values were obtained:
[1] = tested on: Phosphorylation of ERK1/2 in AsPC-1 cells; experiment: Phospho-ERK1/2 MSD Assay (AsPC-1 cells); format: cell-based; conditions: Homo sapiens, ASPC1, 2 h, 2 hours treatment, read-out: p-ERK (AsPC-1 cells) IC50
Summary of the method: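 Read-out: MSD electrochemiluminescent detection of phosphorylated ERK1/2 in whole-cell lysates, fitted to a 4-parameter logistic curve for IC50. Prior to lysis, AsPC-1 cells (25,000 per well) received a 2 h compound dose-response at 37 °C.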

[2] = tested on: Phosphorylation of ERK1/2 in A-427 cells; experiment: Phospho-ERK1/2 MSD Assay (A-427 cells); format: cell-based; conditions: Homo sapiens, A-427, 2 h, 2 h treatment, read-out: p-ERK (A427 cells) IC50
Summary of the method: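 ERK1/2 phosphorylation measured by Meso Scale whole-cell lysate assay after A-427 cells were exposed to a titration of compound for 2 h at 37 °C.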

[3] = target: GDP-bound KRAS protein (aa 1-169), containing both G12D and C118A amino acid substitutions (Homo sapiens, UniProt P01116, C118A/G12D); experiment: KRAS G12D Coupled Nucleotide Exchange Assay; format: biochemical; conditions: 2 h compound pre-incubation
GDP-bound KRAS protein (aa 1-169), containing both G12D and C118A amino acid substitutions, sequence (P01116 1-169 isoform P01116-2 G12D/C118A): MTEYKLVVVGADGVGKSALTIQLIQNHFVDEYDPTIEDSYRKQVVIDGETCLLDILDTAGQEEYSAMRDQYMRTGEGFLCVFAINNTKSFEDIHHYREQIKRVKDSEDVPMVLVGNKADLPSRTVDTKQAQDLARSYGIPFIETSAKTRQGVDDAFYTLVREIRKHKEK
Protocol: Following compound pre-incubation, purified SOS protein (aa 564-1049) and GTP (Roche 10106399001) were added to the assay wells and incubated for an additional 30 min. […] The assay plates were then read on a PerkinElmer EnVision Multilabel Reader, using AlphaScreen® technology, and data were analyzed using a 4-parameter logistic model to calculate IC50 values.

[4] = target: His-tagged KRAS G12D protein (Homo sapiens, UniProt P01116, G12D); experiment: KRAS G12D TR-FRET Assay; format: binding
His-tagged KRAS G12D protein, sequence (P01116 1-188 isoform P01116-2 G12D): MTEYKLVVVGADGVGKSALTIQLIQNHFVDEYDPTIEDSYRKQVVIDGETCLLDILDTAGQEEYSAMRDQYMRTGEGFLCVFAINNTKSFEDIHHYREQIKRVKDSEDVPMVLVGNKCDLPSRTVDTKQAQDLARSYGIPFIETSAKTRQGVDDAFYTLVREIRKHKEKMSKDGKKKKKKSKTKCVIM

For `Nc1ccc(C2CC2)c(-c2c(F)cc3c(N4C[C@H]5CC[C@@H](C4)N5)nc(OC[C@@]45CCCN4C[C@H](F)C5)nc3c2F)c1` [Example 114, 3-(4-((1R,5S)-3,8-diazabicyclo[3.2.1]octan-3-yl)-6,8-difluoro-2-(((2R,7aS)-2-fluorotetrahydro-1H-pyrrolizin-7a(5H)-yl)methoxy)quinazolin-7-yl)-4-cyclopropylaniline], the IC50 [1] was 1420 nM, the IC50 [2] was 985 nM and the “Avg 2 h Coupled Exchange IC50” value [3] was 4 nM. The IC50 [4] was 16 nM.
With `CCc1c(F)ccc2cc(O)cc(-c3cc4nc(OC[C@@]56CCCN5C[C@H](F)C6)nc(N5C[C@@H]6CC[C@H]5CN6)c4cc3F)c12` [Example 174, 4-(4-((1S,4S)-2,5-diazabicyclo[2.2.2]octan-2-yl)-6-fluoro-2-(((2R,7aS)-2-fluorotetrahydro-1H-pyrrolizin-7a(5H)-yl)methoxy)quinazolin-7-yl)-5-ethyl-6-fluoronaphthalen-2-ol] the IC50 [1] was 64 nM, the IC50 [2] was 57 nM and the “Avg 2 h Coupled Exchange IC50” value [3] was 5 nM. For the same compound, the IC50 [4] was 4 nM.
For `Cc1c(Cl)cc2[nH]ncc2c1-c1c(F)cc2c(N3C[C@H]4CC[C@@H](C3)N4)nc(OC[C@@]34CCCN3C[C@H](F)C4)nc2c1F` [Example 74, 4-((1R,5S)-3,8-diazabicyclo[3.2. 1]octan-3-yl)-7-(6-chloro-5-methyl-1H-indazol-4-yl)-6,8-difluoro-2-(((2R,7aS)-2-fluorotetrahydro-1H-pyrrolizin-7a(5H)-yl)methoxy) quinazoline], the IC50 [1] was 386 nM, the IC50 [2] was 148 nM and the “Avg 2 h Coupled Exchange IC50” value [3] was 7 nM. For the same compound, the IC50 [4] was 7 nM.
`CCc1c(F)ccc2cc(O)cc(-c3ccc4c(N5C[C@H]6CC[C@@H](C5)N6)nc(OCC5(O)CCC5)nc4c3F)c12` [Example 135, 4-(4-((1R,5S)-3,8-diazabicyclo[3.2.1]octan-3-yl)-8-fluoro-2-((1-hydroxycyclobutyl)methoxy)quinazolin-7-yl)-5-ethyl-6-fluoronaphthalen-2-ol] was tested, and the IC50 [1] was 2270 nM, the IC50 [2] was 2120 nM and the “Avg 2 h Coupled Exchange IC50” value [3] was 9 nM. The IC50 [4] was 10 nM.
For `CCc1c(F)ccc2cc(O)cc(-c3c(F)cc4c(N5C[C@@H]6CC[C@H]5CN6)nc(OC[C@@]56CCCN5C[C@H](F)C6)nc4c3F)c12` [Example 93, 4-(4-((1S,4S)-2,5-diazabicyclo[2.2. 2]octan-2-yl)-6,8-difluoro-2-(((2R,7aS)-2-fluorotetrahydro-1H-pyrrolizin-7a(5H)-yl)methoxy)quinazolin-7-yl)-5-ethyl-6-fluoronaphthalen-2-ol], the IC50 [1] was 9 nM, the IC50 [2] was 6 nM and the “Avg 2 h Coupled Exchange IC50” value [3] was 6 nM. The IC50 [4] was 5 nM.
For `Oc1cc(-c2c(F)cc3c(N4C[C@H]5C[C@@H](C4)N5)nc(OC[C@@]45CCCN4C[C@H](F)C5)nc3c2F)c2ccccc2c1` [Example 13, 4-(4-((1R,5S)-3,6-diazabicyclo[3.1. 1]heptan-3-yl)-6,8-difluoro-2-(((2R,7aS)-2-fluorotetrahydro-1H-pyrrolizin-7a(5H)-yl)methoxy)quinazolin-7-yl)naphthalen-2-ol], the IC50 [1] was 1730 nM, the IC50 [2] was 238 nM and the “Avg 2 h Coupled Exchange IC50” value [3] was 6 nM. The IC50 [4] was 7 nM.
For `Oc1cc(-c2ccc3c(N4C[C@H]5C[C@@H](C4)N5)nc(OC[C@@]45CCCN4C[C@H](F)C5)nc3c2F)c2ccccc2c1` [Example 4, 4-(4-((1R,5S)-3,6-diazabicyclo[3.1. 1]heptan-3-yl)-8-fluoro-2-(((2R,7aS)-2-fluorotetrahydro-1H-pyrrolizin-7a(5H)-yl)methoxy)quinazolin-7-yl)naphthalen-2-ol], the IC50 [1] was 1230 nM, the IC50 [2] was 294 nM and the “Avg 2 h Coupled Exchange IC50” value [3] was 7 nM. It also gave an IC50 [4] of 5 nM.
In the case of `Cc1c(Cl)cc2[nH]ncc2c1-c1ccc2c(N3[C@@H]4CC[C@H]3CNC4)nc(OC[C@@]34CCCN3C[C@H](F)C4)nc2c1` [Example 38, 4-((1R,5S)-3,8-diazabicyclo[3.2. 1]octan-8-yl)-7-(6-chloro-5-methyl-1H-indazol-4-yl)-2-(((2R,7aS)-2-fluorotetrahydro-1H-pyrrolizin-7a(5H)-yl)methoxy) quinazoline], the IC50 [1] is reported as 6310 nM, the IC50 [2] is reported as over 10000 nM and the “Avg 2 h Coupled Exchange IC50” value [3] is reported as 42 nM. For the same compound, the IC50 [4] was 195 nM.
For `Fc1cc2c(N3[C@@H]4CC[C@H]3CNC4)nc(OC[C@@]34CCCN3C[C@H](F)C4)nc2c(F)c1-c1cccc2cccc(Cl)c12` [Example 22, 4-((1R,5S)-3,8-diazabicyclo[3.2. 1]octan-8-yl)-7-(8-chloronaphthalen-1-yl)-6,8-difluoro-2-(((2R,7aS)-2-fluorotetrahydro-1H-pyrrolizin-7a(5H)-yl)methoxy) quinazoline], the IC50 [1] was 2350 nM, the IC50 [2] was 2660 nM and the “Avg 2 h Coupled Exchange IC50” value [3] was 14 nM. The IC50 [4] was 17 nM.
In the case of `Cc1c(-c2cc(O)cc3cccc(Cl)c23)ccc2c(N3C[C@H]4CC[C@@H](C3)N4)nc(OC[C@@]34CCCN3C[C@H](F)C4)nc12` [Example 57, 4-(4-((1R,5S)-3,8-diazabicyclo[3.2. 1]octan-3-yl)-2-(((2R,7aS)-2-fluorotetrahydro-1H-pyrrolizin-7a(5H)-yl)methoxy)-8-methylquinazolin-7-yl)-5-chloronaphthalen-2-ol], the IC50 [1] is reported as 213 nM, the IC50 [2] is reported as 222 nM and the “Avg 2 h Coupled Exchange IC50” value [3] is reported as 3 nM. It also gave an IC50 [4] of 5 nM.
With `CCc1c(F)ccc2cc(O)cc(-c3c(Cl)cc4c(N5C[C@H]6CC[C@@H](C5)N6)nc(OC[C@@]56CCCN5C[C@H](F)C6)nc4c3F)c12` [Example 134, 4-(4-((1R,5S)-3,8-diazabicyclo[3.2.1]octan-3-yl)-6-chloro-8-fluoro-2-(((2R,7aS)-2-fluorotetrahydro-1H-pyrrolizin-7a(5H)-yl)methoxy)quinazolin-7-yl)-5-ethyl-6-fluoronaphthalen-2-ol] the IC50 [1] was 74 nM, the IC50 [2] was 57 nM and the “Avg 2 h Coupled Exchange IC50” value [3] was 7 nM. For the same compound, the IC50 [4] was 4 nM.
For `CCC(O)(CC)COc1nc(N2C[C@H]3CC[C@@H](C2)N3)c2cc(F)c(-c3cc(O)cc4ccc(F)c(F)c34)c(F)c2n1` [Example 124, 4-(4-((1R,5S)-3,8-diazabicyclo[3.2.1]octan-3-yl)-2-(2-ethyl-2-hydroxybutoxy)-6,8-difluoroquinazolin-7-yl)-5,6-difluoronaphthalen-2-ol], the IC50 [1] was 2410 nM, the IC50 [2] was 4320 nM and the “Avg 2 h Coupled Exchange IC50” value [3] was 19 nM. For the same compound, the IC50 [4] was 34 nM.
In the case of `Oc1cc(-c2ccc3c(N4C[C@H]5C[C@@H](C4)N5)nc(OCC45CCCN4CC(F)(F)C5)nc3c2F)c2ccccc2c1` (stereo partly drawn) [Example 8, 4-(4-((1R,5S)-3,6-diazabicyclo[3.1. 1]heptan-3-yl)-2-((2,2-difluorotetrahydro-1H-pyrrolizin-7a(5H)-yl)methoxy)-8-fluoroquinazolin-7-yl)naphthalen-2-ol], the IC50 [1] is reported as 6940 nM, the IC50 [2] is reported as 7880 nM and the “Avg 2 h Coupled Exchange IC50” value [3] is reported as 87 nM. It also gave an IC50 [4] of 92 nM.
In the case of `CCc1c(F)ccc2cc(O)cc(-c3c(F)cc4c(N5[C@@H]6CNC[C@H]5COC6)nc(OC[C@@]56CCCN5C[C@H](F)C6)nc4c3F)c12` [Example 151, 4-(4-((1R,5S)-3-oxa-7,9-diazabicyclo[3.3.1]nonan-9-yl)-6,8-difluoro-2-(((2R,7aS)-2-fluorotetrahydro-1H-pyrrolizin-7a(5H)-yl)methoxy)quinazolin-7-yl)-5-ethyl-6-fluoronaphthalen-2-ol], the IC50 [1] is reported as 123 nM, the IC50 [2] is reported as 65 nM and the “Avg 2 h Coupled Exchange IC50” value [3] is reported as 3 nM. It also gave an IC50 [4] of 4 nM.
In the case of `Cc1ccc2[nH]nc(C)c2c1-c1ccc2c(N3C[C@H]4CC[C@@H](C3)N4)nc(OC[C@@]34CCCN3C[C@H](F)C4)nc2c1F` [Example 209, 4-((1R,5S)-3,8-diazabicyclo[3.2.1]octan-3-yl)-7-(3,5-dimethyl-1H-indazol-4-yl)-8-fluoro-2-(((2R,7aS)-2-fluorotetrahydro-1H-pyrrolizin-7a(5H)-yl)methoxy) quinazoline], the IC50 [1] is reported as 2570 nM, the IC50 [2] is reported as 1620 nM and the “Avg 2 h Coupled Exchange IC50” value [3] is reported as 24 nM. For the same compound, the IC50 [4] was 68 nM.
For `CCc1c(F)ccc2cc(O)cc(-c3ccc4c(N5C[C@H]6CC[C@@H](C5)N6)nc(O[C@@H](C)C(C)(C)O)nc4c3F)c12` [Example 136, 4-(4-((1R,5S)-3,8-diazabicyclo[3.2.1]octan-3-yl)-8-fluoro-2-(((S)-3-hydroxy-3-methylbutan-2-yl)oxy)quinazolin-7-yl)-5-ethyl-6-fluoronaphthalen-2-ol], the IC50 [1] was 4160 nM, the IC50 [2] was 5350 nM and the “Avg 2 h Coupled Exchange IC50” value [3] was 21 nM. The IC50 [4] was 56 nM.
`Oc1cc(-c2ccc3c(N4[C@@H]5CNC[C@H]4COC5)nc(OCC45CCCN4CC(F)(F)C5)nc3c2F)c2ccccc2c1` (stereo partly drawn) [Example 10, 4-(4-((1R,5S)-3-oxa-7,9-diazabicyclo[3.3. 1]nonan-9-yl)-2-((2,2-difluorotetrahydro-1H-pyrrolizin-7a(5H)-yl)methoxy)-8-fluoroquinazolin-7-yl)naphthalen-2-ol] was tested, and the IC50 [1] was 6270 nM, the IC50 [2] was 5240 nM and the “Avg 2 h Coupled Exchange IC50” value [3] was 132 nM. It also gave an IC50 [4] of 106 nM.
In the case of `CCc1c(F)ccc2cc(O)cc(-c3cc4nc(OC[C@@]56CCCN5C[C@H](F)C6)nc(N5C[C@H]6CC[C@@H](C5)N6)c4cc3O)c12` [Example 201, 4-((1R,5S)-3,8-diazabicyclo[3.2.1]octan-3-yl)-7-(8-ethyl-7-fluoro-3-hydroxynaphthalen-1-yl)-2-(((2R,7aS)-2-fluorotetrahydro-1H-pyrrolizin-7a(5H)-yl)methoxy) quinazolin-6-ol], the IC50 [1] is reported as 45 nM, the IC50 [2] is reported as 16 nM and the “Avg 2 h Coupled Exchange IC50” value [3] is reported as 6 nM. The IC50 [4] was 3 nM.

— patent US20250059205A1, “Heterocyclic Compounds and Methods of Use” (AMGEN INC., priority 2021, published 2025)
